Data on 14 compounds can be found in US20060058268A1, “Compounds and methods for treating diabetic vascular diseases” (priority 2004, published 2006).

Bounds are passed on as bounds.

The test system of the first assay is VCAM-1. In words: VCAM-1 assay with ELISA readout (Examples 5-6). In kind it is cell-based. Conditions: 16 h, TNF added with compound, incubated overnight (approximately 16 hours). The protocol: Two to four confluent P150 plates are trypsinized and the cells transferred to a 50 mL conical centrifuge tube. The cells are pelleted, resuspended, and counted using the trypan blue exclusion method.
Cells are resuspended at a concentration of 36,000 cells/mL and 1 mL is aliquoted per well.
Cells are split into 24 well tissue culture plates. The cells in each well should be approximately 90-95% confluent by the following day. Cells should not be older than passage 8.
Compounds are initially screened at 50 μM and 10 μM. A 50 mM stock solution for each compound is prepared in culture medium. The stock solution is diluted to 5 mM and 1 mM. When 10 μL of the 5 mM solution is added to the well (1 mL medium/well), the final concentration will be 50 μM. Adding 10 μL of the 1 mM solution to the well will give a final concentration of 10 μM.
Compounds which will not go into solution in culture medium are resuspended in DMSO at a concentration of 25 mM. The stock solution is then diluted to the final concentration in culture medium. The old medium is aspirated and 1 mL of the new medium with the compound is added. For example, if the final concentration is 50 µM, the 2 μL of the 25 mM stock is added per mL of culture medium. The […] solution is diluted for lower concentrations.
The compounds are added to the plate (each compound is done in duplicate). One plate is done for VCAM expression and one plate is done for ICAM expression.
Immediately after the compounds are added, TNF is added to each well. 100 units/mL TNF is usually added to each well. Since each lot of TNF varies in the number of units, each new lot is titrated to determine the optimum concentration. Therefore this concentration will change. If 100 units/mL is being used, dilute the TNF to 10 units/μL and add 10 μL to each well.
The plates are incubated at 37° C., 5% CO2 overnight (approximately 16 hours). The next day the plates are checked under the microscope to see if there are any visual signs of toxicity. Records are made of any cell death, debris, or morphology changes, as well as insoluble compounds (particulate or turbity).
In order to assess MCP-1, the media (500 μL) is saved and frozen at −70° C. Wash cells once with roughly 1 ml/well of Hanks Balance Salt Solution (HBSS) or PBS. Gently empty the wash solution and then tap the plate onto paper towels. Add either 250 μL/well of HBSS+5% FCCS to the plank (no primary antibody wells) or 250 μL/well of primary antibody diluted in HBSS+5% FCS. Incubate for 30 minutes at 37° C. Wash the wells twice with 0.5 mL/well HBSS or PBS and gently tap the plates onto paper towels after the last wash. Add 250 μL/well of HRP-conjugated second antibody diluted in HBSS+5% FCS to every well including the blank wells (no primary antibody). Incubate at 37° C. for 30 minutes. Wash the wells four times with 0.5 mL/well HBSS or PBS and gently tap the plates onto paper towels after the last wash. Add 250 μL/well of substrate solution. Incubate at room temperature in the dark until there is adequate color development (blue). Note the length of time incubation was performed (typically 15-30 minutes). Add 75 μL/well stopper solution (8N sulfuric acid), and read at 450 nm.
On the technique in general: ELISA stands for enzyme-linked immunosorbent assay.
The IC50 is the concentration that inhibits the measured activity by half. With `CC(C)(Sc1cc(C(C)(C)C)c(O)c(C(C)(C)C)c1)Sc1cc(C(C)(C)C)c(OCC(O)CO)c(C(C)(C)C)c1` (centres unmarked) [1,2-Propanediol, 3-[4-[[1-[[3,5-bis(1,1-dimethylethyl)-4-hydroxyphenyl]thio]-1-methylethyl]thio]-2,6-bis(1,1-dimethylethyl)phenoxy]-], the IC50 came out at 30 µM.

Consider `CC(C)(Sc1cc(C(C)(C)C)c(O)c(C(C)(C)C)c1)Sc1cc(C(C)(C)C)c(OC(=O)c2ccc([N+](=O)[O-])o2)c(C(C)(C)C)c1` [2-Furancarboxylic acid, 5-nitro-, 4-[[1-[[3,5-bis(1,1-dimethylethyl)-4-hydroxyphenyl]thio]-1-methylethyl]thio]-2,6-bis(1,1-dimethylethyl)phenyl ester], for which the IC50 is 25 µM.

In the case of `CC(C)(Sc1cc(C(C)(C)C)c(O)c(C(C)(C)C)c1)Sc1cc(C(C)(C)C)c(O/C=C/C(=O)O)c(C(C)(C)C)c1` [2-Propenoic acid, 3-[4-[[1-[[3,5-bis(1,1-dimethylethyl)-4-hydroxyphenyl]thio]-1-methylethyl]thio]-2,6-bis(1,1-dimethylethyl)phenoxy]-, (E)-], the IC50 amounted to 30 µM.

`C=CC(=O)OCCCCOc1c(C(C)(C)C)cc(SC(C)(C)Sc2cc(C(C)(C)C)c(O)c(C(C)(C)C)c2)cc1C(C)(C)C` [2-Propenoic acid, 4-[4-[[1-[[3,5-bis(1,1-dimethylethyl)-4-hydroxyphenyl]thio]-1-methylethyl]thio]-2,6-bis(1,1-dimethylethyl)phenoxy]butyl ester]: the IC50 turned out to be 75 µM.

For `CC(C)(Sc1cc(C(C)(C)C)c(O)c(C(C)(C)C)c1)Sc1cc(C(C)(C)C)c(OCC(=O)O)c(C(C)(C)C)c1` [Acetic acid, [4-[[1-[[3,5-bis(1,1-dimethylethyl)-4-hydroxyphenyl]thio]-1-methylethyl]thio]2,6-bis(1,1-dimethylethyl)phenoxy]-], the IC50 is 10 µM.

Still in this assay, the particulars now being: TNF added with compound, incubated overnight (approximately 16 hours).
Take “2,6-di-tert-butyl-4-thio(3′,5′-ditert-butyl,4′-hydroxy butanedioic acid ester)phenol”: the IC50 was determined as 6 µM.

Take `COc1c(C(C)(C)C)cc(SCc2ccc(C(F)(F)F)cc2)cc1C(C)(C)C` [2,6-di-tert-butyl-1-methoxy-4-thio(4′-trifluoromethyl)benzyl)benzene]: the IC50 is over 50 µM.

Consider `CC(=O)OC(C)(C)CSc1cc(C(C)(C)C)c(O)c(C(C)(C)C)c1` [2,6-di-tert-butyl-4-thio(2′-acetoxy,2′-methylpropyl)phenol], for which the IC50 turned out to be 50 µM.

With `CC(C)(C)c1cc(SCc2ccc(F)cc2)cc(C(C)(C)C)c1O` [2,6-di-tert-butyl-4-thio(4′-fluorobenzyl)phenol], the IC50 worked out at 35 µM.

As for `Cc1ccc(CSc2cc(C(C)(C)C)c(O)c(C(C)(C)C)c2)cc1` [2,6-di-tert-butyl-4-thio(4′-methylbenzyl)phenol], the IC50 is 75 µM.

Regarding `CN(C)Cc1ccc(CSc2cc(C(C)(C)C)c(O)c(C(C)(C)C)c2)o1` [2,6-di-tert-butyl-4-thio(5′-methyl-2′-((dimethylamino)methyl)furan)phenol], the IC50 stood at 10 µM.

Consider `CN(C)c1ccc(CCOc2c(C(C)(C)C)cc(SC(C)(C)Sc3cc(C(C)(C)C)c(OCCc4ccc(N(C)C)cc4)c(C(C)(C)C)c3)cc2C(C)(C)C)cc1` [Benzenamine, 4,4′-[(1-methylethylidene)bis [thio[2,6-bis(1,1-dimethylethyl)-4,1-phenylene]oxy-2,1-ethanediyl]]bis[N,N-dimethyl-], for which the IC50 is over 50 µM.

On to `CC(C)(Sc1cc(C(C)(C)C)c(O)c(C(C)(C)C)c1)Sc1cc(C(C)(C)C)c(OC(=O)CCC(=O)O)c(C(C)(C)C)c1` [Butanedioic acid, mono [4-[[1-[[3,5-bis(1,1-dimethylethyl)-4-hydroxyphenyl]thio]-1-methylethyl]thio]2,6-bis(1,1-dimethylethyl)phenyl] ester], for which the IC50 came out at 5.6 µM.

The assay is the same for the next values; noted with them: at 50 μM.
Regarding `CC(C)(C)c1cc(SCCCS(=O)(=O)O)cc(C(C)(C)C)c1O` [2,6-di-tert-butyl-4-thio(3′-propanesulfonic acid)phenol], the “VCAM-1 inhibition at [μM]” value was 25% at 50.
